In patent US6949522B2, “β-2′- or 3′-halonucleosides” (Pharmasset, Inc., priority 2001, dated 2005):

What was measured:
[1] = test system: mitochondrial cytochrome C oxidase subunit II (COXII) gene; assay type: cell-based, human; conditions: HepG2, 10 μM, 7 days; for COXIINrDNA (range) relative to control: COXII DNA normalized to rDNA
in vitro = conditions: human
Protocol: After a three day-incubation for HepG2, or 5 days for human PBM cells, cell viability and mitochondrial activity were measured in a colorimetric assay using the MTS- or MTT dye method (Promega, Madison, Wis.).

human PBM cells = experiment: in vitro; assay type: cell-based
Protocol: The compounds were evaluated for their potential toxic effects on uninfected PHA-stimulated human PBM cells, in CEM (T-lymphoblastoid cell line obtained from American Type Culture Collection, Rockville, Md.) and Vero (African green monkey kidney) cells. PBM cells were obtained from whole blood of healthy seronegative donors (HIV-1 and hepatitis B virus) by single-step Ficoll-Hypaque discontinous gradient centrifugation. […] All of the cells were plated in 96-well cell culture plates containing ten-fold serial dilutions of the test drug. […] At the end of incubation, MTT tetrazolium dye solution (Cell titer 96®, Promega, Madison, Wis.) was added to each well and incubated overnight. The reaction was stopped with stop solubilization solution (Promega, Madison, Wis.). The plates were incubated for 5 hours to ensure that the formazan crystals were dissolved. The plates were read at a wavelength of 570 nm using an ELISA plate reader (Bio-tek instruments, Inc., Winooski, Vt., Model # EL 312e). […] Bookmark not defined.

| Compound | Average ΔCt ± SD COXII DNA [1] | Average ΔΔCt ± SD COXII-rDNA [1] | Average ΔΔCt ± SD COXII-β-actin [1] | IC50 at 3 days (in vitro) | COXIINrDNA (range) relative to control ([1]; 2-ΔΔCt) | COXIINβ-actin DNA (range) relative to control ([1]; COXII DNA normalized to β-actin DNA, 2-ΔΔCt) | IC50 (human PBM cells) |
| --- | --- | --- | --- | --- | --- | --- | --- |
| Cc1cn([C@H]2C[C@H](N=[N+]=[N-])[C@@H](CO)O2)c(=O)[nH]c1=O [AZT, 3′-azido-3′-deoxythymidine, reference compound] | 0.25 ± 0.13 | −0.61 ± 0.56 | 0.16 ± 0.44 | > 100 µM | – | – | – |
| Nc1ccn([C@@H]2CS[C@H](CO)O2)c(=O)n1 [Compound 3TC, (−)-β-2′,3′-dideoxy-3′-thiacytidine, reference compound] | 0.08 ± 0.33 | −0.39 ± 0.50 | −0.02 ± 0.43 | > 100 µM | 1.31 (0.92-1.88) | 1.02 (0.75-1.37) | – |
| Nc1ccn([C@@H]2C=C(F)[C@H](CO)O2)c(=O)n1 [Compound 10, 1-(2,3-Dideoxy-3-fluoro-β-L-glycero-pent-2-eno-furanosyl)cytosine] | −0.29 ± 0.19 | −0.21 ± 0.51 | – | > 100 µM | 1.16 (0.81-1.64) | – | – |
| Nc1ccn([C@@H]2C=C(F)[C@H](CO)O2)c(=O)n1 [Compound 23, 1-(2,3-Didcoxy-3-fluoro-β-L-glycero-pent-2-eno-furanosyl)cytosine] | −0.16 ± 0.17 | 0.36 ± 0.41 | – | – | 0.78 (0.59-1.04) | – | – |
| Nc1ccn([C@@H]2S[C@H](CO)C=C2F)c(=O)n1 [Compound D-17, (−)-1-[(1S,4R)-2,3-dideoxy-2,3-didehydro-2-fluoro4-thio-β-D-ribofuranosyl]-cytosine] | −0.14 ± 0.10 | −0.96 ± 0.56 | – | – | 1.94 (1.31-2.87) | – | > 100 µM |
| Nc1nc(=O)n([C@@H]2S[C@H](CO)C=C2F)cc1F [Compound D-18, (−)-1-[(1S,4R)-2,3-dideoxy-2,3-didehydro-2-fluoro-4-thio-β-D-ribofuranosyl]-5-fluorocytosine] | −0.39 ± 0.43 | 0.06 ± 0.29 | – | – | 0.96 (0.78-1.17) | – | > 100 µM |
| Nc1ccn([C@H]2S[C@@H](CO)C=C2F)c(=O)n1 [Compound L-17, (+)-1-[(1S,4R)-2,3-dideoxy-2,3-didehydro-2-fluoro-4-thio-β-L-ribofuranosyl]-cytosine] | −0.05 ± 0.16 | −0.55 ± 0.75 | – | – | 1.46 (0.87-2.47) | – | > 100 µM |
| Nc1nc(=O)n([C@H]2S[C@@H](CO)C=C2F)cc1F [Compound L-18, (+)-1-[(1S,4R)-2,3-dideoxy-2,3-didehydro-2-fluoro-4-thio-β-L-ribofuranosyl]-5-fluoro-cytosine] | −0.06 ± 0.24 | −0.16 ± 0.56 | – | – | 1.12 (0.76-1.64) | – | > 100 µM |
